Literature values in patent US20130177609A1, “Compositions and Methods for Increasing Bioavailability of Topical Ophthalmic Drugs” (priority 2008, published 2013).

conditions: cited from earlier work

Going from `CC(C)NCC(O)COc1ccc(CCOCC2CC2)cc1` (stereo not drawn) [betaxolol] to `CC(C)(C)NC[C@H](O)COc1cccc2c1CCCC2=O` [levobutonol], the “Approximate Solubility in Water” value falls from 450 µg/mL to 250 µg/mL (1.8-fold).

First: Brc1c(NC2=NCCN2)ccc2nccnc12 [brimonidine]
Second: CN1C(C(=O)Nc2ccccn2)=C(O)c2ccccc2S1(=O)=O [piroxicam]
The “Approximate Solubility in Water” value of the first is 50-fold higher: 1500 µg/mL for the first, 30 µg/mL for the second.

Compared with `Nc1c(CC(=O)O)cccc1C(=O)c1ccc(Br)cc1` [bromfenac], `NC(=O)Cc1cccc(C(=O)c2ccccc2)c1N` [nepafenac] is higher in “Approximate Solubility in Water” value: 13 µg/mL for the first, 20 to 50 µg/mL for the second.

First: C[C@@H]1C[C@H]2[C@@H]3CCC4=CC(=O)C=C[C@]4(C)[C@@]3(F)[C@@H](O)C[C@]2(C)[C@@]1(O)C(=O)CO [dexamethasone]
Second: CC(C)OC(=O)CCC/C=C\C[C@@H]1[C@@H](CC[C@@H](O)CCc2ccccc2)[C@H](O)C[C@@H]1O [latanoprost]
The “Approximate Solubility in Water” value of the first is 5.8-fold lower: 9 µg/mL for the first, 52 µg/mL for the second.

For `CCc1cccc2c3c([nH]c12)C(CC)(CC(=O)O)OCC3` (stereo not drawn) [etodolac], the “Approximate Solubility in Water” value is given as 16 µg/mL.
